# Experimental data: patent US20200032214A1, “METHOD FOR PRODUCING MYOCARDIAL STEM CELL USED FOR TREATMENT AND/OR PREVENTION OF CARDIAC ARREST” (LUCA Science Inc., priority 2016, published 2020)
# Test system: mitochondrial membrane potential
# Experiment: Mitochondrial membrane potential with fluorescent dye JC-1
# Format: cell-based, mouse
# Conditions: microscopy; FIG. 15
# Source text: For MA-Cell, and CPC prepared in Example 1, the mitochondrial membrane potential was examined using fluorescent dye JC-1 (Invitrogen) in accordance with manufacturer's protocol. JC-1 emits red fluorescence with a wavelength of 590 nm when accumulating on polarized mitochondria, and JC-1 is diffused into the cytoplasm to emit green fluorescence with a wavelength of 529 nm when mitochondria are depolarized (the membrane potential is eliminated).
# Further, for 19 cells for each of MA-Cell and CPC, a ratio of the fluorescence intensity of polarized mitochondria (red, Dimer) to the fluorescence intensity of depolarized mitochondria (green, Monomer) (Dimer/Monomer ratio) was calculated (FIG. 16).
compound,measurement,value
N#CC(C#N)=NNc1ccc(OC(F)(F)F)cc1 [FCCP],JC-1 red fluorescence (polarized mitochondria),red fluorescence was substantially eliminated
